Experiments:
[1] = tested on: Breast Cancer subpanel; experiment: cells
Description: (§1) At the first stage of biological activity study, the antitumor activity screening of the selected compounds 2b, 2c, 2f, 2h, and 2j was performed according to the NCI DTP (USA) standard protocol at the concentrations ranging from 10^−4 to 10^−8 M toward 60 tumor cell lines. The percentage of growth was evaluated spectrophotometrically versus controls not treated with test agents after 48 h exposure and using SRB protein assay to estimate cell viability or growth. Dose–response parameters were calculated for each cell line: GI50—molar concentration of the compound that inhibits 50% net cell growth; TGI—molar concentration of the compound leading to the total inhibition; and LC50—molar concentration of the compound leading to 50% net cell death. Furthermore, mean graph midpoints (MG_MID) were calculated for each of the parameters, giving an average activity parameter over all cell lines for the tested compound. For the MG_MID calculation, insensitive cell lines were included with the highest concentration tested.
(§2) The selectivity index (SI) obtained by dividing the full panel MG-MID (mM) of the tested compound by their individual subpanel MG-MID (mM) was considered as a measure of selectivity of anticancer activity (Table 3).
(§3) Primary anticancer assay was performed on a panel of approximately sixty human tumor cell lines derived from nine neoplastic diseases, in accordance with the protocol of the Drug Evaluation Branch, National Cancer Institute, Bethesda. Tested compounds were added to the culture at a single concentration (10^−5 M) and the cultures were incubated for 48 h. End point determinations were made with a protein binding dye, sulforhodamine B (SRB). […] The percentage growth was evaluated spectrophotometrically versus controls not treated with test agents.
(§4) Dose–response parameters (GI50, TGI, LC50) were calculated for each compound. […] The drug concentration resulting in total growth inhibition (TGI) was calculated from Ti = Tz. The LC50 (concentration of drug resulting in a 50% reduction in the measured protein at the end of the drug treatment as compared to that at the beginning) indicating a net loss of cells following treatment was calculated from [(Ti − Tz)/Tz] × 100 = −50 (2). Values were calculated for each of these parameters if the level of activity was reached; however, if the effect was not reached or was excessive, the value for that parameter was expressed as more or less than the maximum or minimum concentration tested.

[2] = tested on: CNS Cancer subpanel; experiment: cells
Description: as §1, §2, §3, §4

[3] = tested on: Colon Cancer subpanel; experiment: cells
Description: as §1, §2, §3, §4

[4] = tested on: Leukemia subpanel; experiment: cells
Description: as §1, §2, §3, §4

[5] = tested on: Melanoma subpanel; experiment: cells
Description: as §1, §2, §3, §4

[6] = tested on: Non-Small Cell Lung Cancer subpanel; experiment: cells
Description: as §1, §2, §3, §4

[7] = tested on: Ovarian Cancer subpanel; experiment: cells
Description: as §1, §2, §3, §4

[8] = tested on: Prostate Cancer subpanel; experiment: cells
Description: as §1, §2, §3, §4

[9] = tested on: Renal Cancer subpanel; experiment: cells
Description: as §1, §2, §3, §4

[10] = tested on: MOLT-4; experiment: cells; details: Homo sapiens, MOLT-4, 48 h
[11] = tested on: EKVX; experiment: cells; details: Homo sapiens, 48 h
[12] = tested on: KM12; experiment: cells; details: Homo sapiens, KM12, 48 h
[13] = tested on: DU-145; experiment: cells; details: Homo sapiens, DU-145, 48 h
[14] = tested on: Colo 205; experiment: NCI DTP 60 cell line screen, SRB
[15] = tested on: HCC-2998; experiment: NCI DTP 60 cell line screen, SRB
[16] = tested on: SF-295; experiment: NCI DTP 60 cell line screen, SRB
[17] = tested on: OVCAR-3; experiment: NCI DTP 60 cell line screen, SRB
[18] = tested on: SK-OV-3; experiment: NCI DTP 60 cell line screen, SRB
[19] = Homo sapiens, read-out: MG_MID, GI50
[20] = Homo sapiens, read-out: MG_MID, LC50
[21] = full panel MG_MID / Breast Cancer subpanel MG_MID
[22] = full panel MG_MID / CNS Cancer subpanel MG_MID
[23] = full panel MG_MID / Colon Cancer subpanel MG_MID
[24] = full panel MG_MID / Leukemia subpanel MG_MID
[25] = full panel MG_MID / Melanoma subpanel MG_MID
[26] = full panel MG_MID / Non-Small Cell Lung Cancer subpanel MG_MID
[27] = full panel MG_MID / Ovarian Cancer subpanel MG_MID
[28] = full panel MG_MID / Prostate Cancer subpanel MG_MID
[29] = full panel MG_MID / Renal Cancer subpanel MG_MID

For `O=C1NC(=S)S/C1=C\C(Cl)=C\c1ccc([N+](=O)[O-])cc1` [Compound 2b, 5-[(Z,2Z)-2-Chloro-3-(4-nitrophenyl)-2-propenylidene]-2-thioxo-4-thiazolidinone], the “MG_MID, TGI” value ([1]; Breast Cancer panel mean) was 28.4 µM, the GI50 [1, 19] was 4.38 µM and the CC50 [1, 20] was 46.7 µM. The “SI (selectivity index), GI50” value [1, 21] was 1.09, the “SI (selectivity index), LC50” value [1, 21] was 0.93 and the “SI (selectivity index), TGI” value [1, 21] was 0.71. The “MG_MID, TGI” value ([2]; CNS Cancer panel mean) was 22.4 µM, the GI50 [2, 19] was 6.98 µM and the CC50 [2, 20] was 45.4 µM. The “SI (selectivity index), GI50” value [2, 22] was 0.69, the “SI (selectivity index), LC50” value [2, 22] was 0.96 and the “SI (selectivity index), TGI” value [2, 22] was 0.91. The “MG_MID, TGI” value ([3]; Colon Cancer panel mean) was 11.5 µM, the GI50 [3, 19] was 3.27 µM and the CC50 [3, 20] was 35.4 µM. For the same compound, the “SI (selectivity index), GI50” value [3, 23] was 1.46, the “SI (selectivity index), LC50” value [3, 23] was 1.23 and the “SI (selectivity index), TGI” value [3, 23] was 1.77. For the same compound, the GI50 [4, 19] was 1.51 µM, the CC50 [4, 20] was greater than 50 µM and the “MG_MID, TGI” value ([4]; Leukemia panel mean) was 20.2 µM. For the same compound, the “SI (selectivity index), GI50” value [4, 24] was 3.17, the “SI (selectivity index), LC50” value [4, 24] was less than 0.87 and the “SI (selectivity index), TGI” value [4, 24] was 1.00. For the same compound, the GI50 [5, 19] was 5.57 µM, the CC50 [5, 20] was 36.8 µM and the “MG_MID, TGI” value ([5]; Melanoma panel mean) was 16.1 µM. The “SI (selectivity index), GI50” value [5, 25] was 0.86, the “SI (selectivity index), LC50” value [5, 25] was 1.18 and the “SI (selectivity index), TGI” value [5, 25] was 1.26. For the same compound, the GI50 [6, 19] was 3.79 µM, the CC50 [6, 20] was 48.6 µM and the “MG_MID, TGI” value ([6]; Non-Small Cell Lung Cancer panel mean) was 29.7 µM. The “SI (selectivity index), GI50” value [6, 26] was 1.26, the “SI (selectivity index), LC50” value [6, 26] was 0.90 and the “SI (selectivity index), TGI” value [6, 26] was 0.68. For the same compound, the GI50 [7, 19] was 6.68 µM, the CC50 [7, 20] was 42.8 µM and the “MG_MID, TGI” value ([7]; Ovarian Cancer panel mean) was 21.0 µM. The “SI (selectivity index), GI50” value [7, 27] was 0.72, the “SI (selectivity index), LC50” value [7, 27] was 1.02 and the “SI (selectivity index), TGI” value [7, 27] was 0.97. The GI50 [8, 19] was 5.89 µM, the CC50 [8, 20] was 39.2 µM and the “MG_MID, TGI” value ([8]; Prostate Cancer panel mean) was 32.1 µM. The “SI (selectivity index), GI50” value [8, 28] was 0.81, the “SI (selectivity index), LC50” value [8, 28] was 1.11 and the “SI (selectivity index), TGI” value [8, 28] was 0.63. For the same compound, the GI50 [9, 19] was 6.23 µM, the CC50 [9, 20] was 42.9 µM and the “MG_MID, TGI” value ([9]; Renal Cancer panel mean) was 18.7 µM. The “SI (selectivity index), GI50” value [9, 29] was 0.77, the “SI (selectivity index), LC50” value [9, 29] was 1.01 and the “SI (selectivity index), TGI” value [9, 29] was 1.09. The GI50 [10] was 1.74 µM, the CC50 ([10]; read-out: LC50) was greater than 50 µM and the GI50 [11] was 2.76 µM. For the same compound, the CC50 ([11]; read-out: LC50) was greater than 50 µM, the GI50 [12] was 5.27 µM and the CC50 ([12]; read-out: LC50) was 40.4 µM. For the same compound, the GI50 [13] was 7.09 µM, the CC50 ([13]; read-out: LC50) was 28.4 µM and the TGI ([14]; Colo 205 (Colon Cancer), 48 h, SRB) was 17.4 µM. The GI50 ([14]; Homo sapiens, COLO 205, 48 h) was 4.04 µM, the CC50 ([14]; Homo sapiens, COLO 205, 48 h, read-out: LC50) was greater than 50 µM and the TGI ([15]; HCC-2998 (Colon Cancer), 48 h, SRB) was 11.7 µM. For the same compound, the GI50 ([15]; Homo sapiens, HCC 2998, 48 h) was 5.43 µM, the CC50 ([15]; Homo sapiens, HCC 2998, 48 h, read-out: LC50) was 25 µM and the GI50 ([16]; Homo sapiens, SF-295, 48 h) was 8.46 µM. It also gave a CC50 ([16]; Homo sapiens, SF-295, 48 h, read-out: LC50) greater than 50 µM, a TGI ([16]; SF-295 (CNS Cancer), 48 h, SRB) of 37.9 µM and a GI50 ([17]; Homo sapiens, OVCAR-3, 48 h) of 1.65 µM. The CC50 ([17]; Homo sapiens, OVCAR-3, 48 h, read-out: LC50) was 26.6 µM, the TGI ([17]; OVCAR-3 (Ovarian Cancer), 48 h, SRB) was 8.08 µM and the GI50 ([18]; Homo sapiens, SK-OV-3, 48 h) was 13 µM. It also gave a CC50 ([18]; Homo sapiens, SK-OV-3, 48 h, read-out: LC50) greater than 50 µM and a TGI ([18]; SK-OV-3 (Ovarian Cancer), 48 h, SRB) greater than 50 µM.

Reference: PMC8161026, “Synthesis and Anticancer Activity Evaluation of 5-[2-Chloro-3-(4-nitrophenyl)-2-propenylidene]-4-thiazolidinones” (Molecules, 2021)
